Where a SMILES comes first, the peptide text is derived from it. Where no end group is shown, it is not given here. [ ]: non-standard residue; d: D form. Tic = O=C(O)[C@@H]1Cc2ccccc2CN1; ΔPro = O=C(O)[C@@H]1C=CCN1; Ac6c = NC1(C(=O)O)CCCCC1; Nle = CCCC[C@H](N)C(=O)O; Ac5c = NC1(C(=O)O)CCCC1; Aib = CC(C)(N)C(=O)O Where only a bound is given, the exact number is not on record here.

Data set [1] is described as follows: Rat plasma half-life assay. In kind it is in vitro ADME. Set-up: half-life: dose or concentration left out as unconfirmed. The note with it: for half-life at 0.1 mg/ml: read-out: Rat Plasma T½ (converted).
A short description of data set [2]: Human plasma half-life assay. In kind it is in vitro ADME.
The mark [3] stands for this setting: human plasma, 37° C., LC-MS, read-out: Human Plasma T½ (converted).

As for `CC[C@H](C)[C@H](NC(=O)[C@H](CCCCN)NC(=O)[C@H](CC(=O)O)NC(=O)C1(NC(=O)[C@H](C)NC(=O)[C@@H](NC(=O)C2(NC(=O)[C@H](Cc3ccc(O)cc3)NC(=O)[C@H](CC(=O)O)NC(=O)[C@H](CO)NC(=O)[C@@H](NC(=O)[C@H](Cc3ccccc3)NC(=O)[C@@H](NC(=O)CNC(=O)[C@@H]3CCCN3C(=O)C(C)(C)NC(=O)[C@@H](N)Cc3ccc(O)cc3)[C@@H](C)O)[C@@H](C)CC)CCCC2)[C@@H](C)CC)CCCCC1)C(=O)N[C@@H](Cc1c[nH]cn1)C(=O)N[C@@H](CCC(N)=O)C(=O)N[C@@H](CCC(N)=O)C(=O)N[C@@H](CC(=O)O)C(=O)N[C@@H](Cc1ccccc1)C(=O)N[C@H](C(=O)N[C@@H](CC(N)=O)C(=O)N[C@@H](Cc1c[nH]c2ccccc12)C(=O)N[C@@H](CC(C)C)C(=O)N[C@@H](CC(C)C)C(=O)N[C@@H](C)C(=O)N[C@@H](CCC(N)=O)C(=O)N[C@@H](CCCCN)C(N)=O)C(C)C` [Example 112, (Aib^2, Pro^3, A5c^11, A6c^14)hGIP(1-30)-NH2] (H-Y[Aib]PGTFISDY[Ac5c]IA[Ac6c]DKIHQQDFVNWLLAQK-NH2; N-terminus assumed), the half-life at 0.1 mg/ml was more than 4320 min in data set [1] (rat plasma, 37° C., LC-MS) and 3580 min in data set [2] (setting [3]).
Turning to “Y[Aib]E[Aib]TFISDYSIAMDKIHQQDFVNWLLAQKGKKNDWKHNITQ-OH [Example 10, (Aib^2, 4)hGIP(1-42)-OH]”, the half-life at 0.1 mg/ml is 240 min in data set [1] (rat plasma, 37° C., LC-MS) and more than 2880 min in data set [2] (setting [3]).
With “YA[ΔPro]GTFISDYSI[Aib][Nle]DKIHQQDFVNWLLAQKGKKNDWKHNITQ-OH [Example 64, (Dhp^3, Aib^13, Nle^14)hGIP(1-42)-OH]”, the “Rat Plasma T½” value in data set [1] (rat plasma, 37° C., LC-MS) amounted to 47.5 h. Also, the “Human Plasma T½” value in data set [2] (human plasma, 37° C., LC-MS) was determined as 41.3 h.
Consider `CC[C@H](C)[C@H](NC(=O)[C@H](CCCCN)NC(=O)[C@H](CC(=O)O)NC(=O)C1(NC(=O)[C@H](C)NC(=O)[C@@H](NC(=O)C2(NC(=O)[C@H](Cc3ccc(O)cc3)NC(=O)[C@H](CC(=O)O)NC(=O)[C@H](CO)NC(=O)[C@@H](NC(=O)[C@H](Cc3ccccc3)NC(=O)[C@@H](NC(=O)CNC(=O)[C@@H]3CC(O)CN3C(=O)[C@H](C)NC(=O)[C@@H](N)Cc3ccc(O)cc3)[C@@H](C)O)[C@@H](C)CC)CCCC2)[C@@H](C)CC)CCCCC1)C(=O)N[C@@H](Cc1c[nH]cn1)C(=O)N[C@@H](CCC(N)=O)C(=O)N[C@@H](CCC(N)=O)C(=O)N[C@@H](CC(=O)O)C(=O)N[C@@H](Cc1ccccc1)C(=O)N[C@H](C(=O)N[C@@H](CC(N)=O)C(=O)N[C@@H](Cc1c[nH]c2ccccc12)C(=O)N[C@@H](CC(C)C)C(=O)N[C@@H](CC(C)C)C(=O)N[C@@H](C)C(=O)N[C@@H](CCC(N)=O)C(=O)N[C@@H](CCCCN)C(=O)NCC(=O)N[C@@H](CCCCN)C(=O)N[C@@H](CCCCN)C(=O)N[C@@H](CC(N)=O)C(=O)N[C@@H](CC(=O)O)C(=O)N[C@@H](Cc1c[nH]c2ccccc12)C(=O)N[C@@H](CCCCN)C(=O)N[C@@H](Cc1c[nH]cn1)C(=O)N[C@@H](CC(N)=O)C(=O)N[C@H](C(=O)N[C@H](C(=O)N[C@@H](CCC(N)=O)C(=O)O)[C@@H](C)O)[C@@H](C)CC)C(C)C` (stereo partly drawn) [Example 88, (4Hyp^3, A5c^11, A6c^14)hGIP(1-42)-OH], for which the half-life at 0.1 mg/ml was 264 min in data set [1] (rat plasma, 37° C., LC-MS) and more than 2880 min in data set [2] (setting [3]).
The corresponding values for `CC[C@H](C)[C@H](NC(=O)[C@H](CO)NC(=O)[C@H](Cc1ccc(O)cc1)NC(=O)[C@H](CC(=O)O)NC(=O)[C@H](CO)NC(=O)C1(NC(=O)[C@H](Cc2ccccc2)NC(=O)[C@@H](NC(=O)CNC(=O)[C@H](CCC(=O)O)NC(=O)C(C)(C)NC(=O)[C@@H](N)Cc2ccc(O)cc2)[C@@H](C)O)CCCCC1)C(=O)N[C@@H](C)C(=O)NC1(C(=O)N[C@@H](CC(=O)O)C(=O)N[C@@H](CCCCN)C(=O)N[C@H](C(=O)N[C@@H](Cc2c[nH]cn2)C(=O)N[C@@H](CCC(N)=O)C(=O)N[C@@H](CCC(N)=O)C(=O)N[C@@H](CC(=O)O)C(=O)N[C@@H](Cc2ccccc2)C(=O)N[C@H](C(=O)N[C@@H](CC(N)=O)C(=O)N[C@@H](Cc2c[nH]c3ccccc23)C(=O)N[C@@H](CC(C)C)C(=O)N[C@@H](CC(C)C)C(=O)N[C@@H](C)C(=O)N[C@@H](CCC(N)=O)C(=O)N[C@@H](CCCCN)C(=O)NCC(=O)N[C@@H](CCCCN)C(=O)N[C@@H](CCCCN)C(=O)N[C@@H](CC(N)=O)C(=O)N[C@@H](CC(=O)O)C(=O)N[C@@H](Cc2c[nH]c3ccccc23)C(=O)N[C@@H](CCCCN)C(=O)N[C@@H](Cc2c[nH]cn2)C(=O)N[C@@H](CC(N)=O)C(=O)N[C@H](C(=O)N[C@H](C(=O)N[C@@H](CCC(N)=O)C(=O)O)[C@@H](C)O)[C@@H](C)CC)C(C)C)[C@@H](C)CC)CCCCC1` [Example 51, (Aib^2, A6c^7, 14)hGIP(1-42)-OH] are 762 min and 2030 min.
As for `CCCC[C@H](NC(=O)[C@H](C)NC(=O)[C@@H](NC(=O)C(C)(C)NC(=O)[C@H](Cc1ccc(O)cc1)NC(=O)[C@H](CC(=O)O)NC(=O)[C@H](CO)NC(=O)[C@@H](NC(=O)[C@H](Cc1ccccc1)NC(=O)[C@@H](NC(=O)CNC(=O)[C@H](CCC(=O)O)NC(=O)C(C)(C)NC(=O)[C@@H](N)Cc1ccc(O)cc1)[C@@H](C)O)[C@@H](C)CC)[C@@H](C)CC)C(=O)N[C@@H](CC(=O)O)C(=O)N[C@@H](CCCCN)C(=O)N[C@H](C(=O)N[C@@H](Cc1c[nH]cn1)C(=O)N[C@@H](CCC(N)=O)C(=O)N[C@@H](CCC(N)=O)C(=O)N[C@@H](CC(=O)O)C(=O)N[C@@H](Cc1ccccc1)C(=O)N[C@H](C(=O)N[C@@H](CC(N)=O)C(=O)N[C@@H](Cc1c[nH]c2ccccc12)C(=O)N[C@@H](CC(C)C)C(=O)N[C@@H](CC(C)C)C(=O)N[C@@H](C)C(=O)N[C@@H](CCC(N)=O)C(=O)N[C@@H](CCCCN)C(N)=O)C(C)C)[C@@H](C)CC` [Example 33, (Aib^2, 11, Nle^14)hGIP(1-30)-NH2] (H-Y[Aib]EGTFISDY[Aib]IA[Nle]DKIHQQDFVNWLLAQK-NH2; N-terminus assumed), the half-life at 0.1 mg/ml in data set [1] (rat plasma, 37° C., LC-MS) was 2040 min; in data set [2] (setting [3]) it was more than 2880 min.
Take “Y[Aib]EGTFISDY[Ac5c]IAMDKIHQQDFVNWLLAQKGKKNDWKHNITQ-OH [Example 53, (Aib^2, A5c^11)hGIP(1-42)-OH]”: the half-life at 0.1 mg/ml is 3100 min in data set [1] (rat plasma, 37° C., LC-MS) and 2000 min in data set [2] (setting [3]).
In the case of “Y[Aib]EGTFISDYS[Ac5c]AMDKIHQQDFVNWLLAQKGKKNDWKHNITQ-OH [Example 7, (Aib^2, A5c^12)hGIP(1-42)-OH]”, the half-life at 0.1 mg/ml in data set [1] (rat plasma, 37° C., LC-MS) is 318 min; in data set [2] (setting [3]) it was 2230 min.
In the case of “Y[Aib]EG[Ac5c]FISDYSIAMDKIHQQDFVNWLLAQKGKKNDWKHNITQ-OH [Example 5, (Aib^2, A5c^5)hGIP(1-42)-OH]”, the half-life at 0.1 mg/ml in data set [1] (rat plasma, 37° C., LC-MS) was 366 min; in data set [2] (setting [3]), more than 2880 min.
The corresponding values for “Y[Aib]EGTF[Ac5c]SDYSIA[Ac6c]DKIHQQDFVNWLLAQKGKKNDWKHNITQ-OH [Example 44, (Aib^2, A5c^7, A6c^14)hGIP(1-42)-OH]” are 450 min and 570 min.
With “YAPGTFISDY[Ac5c]IA[Ac6c]DKIHQQDFVNWLLAQKGKKNDWKHNITQ-OH [Example 102, (Pro^3, A5c^11, A6c^14)hGIP(1-42)-OH]”, the half-life at 0.1 mg/ml in data set [1] (rat plasma, 37° C., LC-MS) is 102 min; in data set [2] (setting [3]), 3250 min.
On the same counts, the results for `CCCC[C@H](NC(=O)C(C)(C)NC(=O)[C@@H](NC(=O)[C@H](CO)NC(=O)[C@H](Cc1ccc(O)cc1)NC(=O)[C@H](CC(=O)O)NC(=O)[C@H](CO)NC(=O)[C@@H](NC(=O)[C@H](Cc1ccccc1)NC(=O)[C@@H](NC(=O)CNC(=O)[C@@H]1Cc2ccccc2CN1C(=O)[C@H](C)NC(=O)[C@@H](N)Cc1ccc(O)cc1)[C@@H](C)O)[C@@H](C)CC)[C@@H](C)CC)C(=O)N[C@@H](CC(=O)O)C(=O)N[C@@H](CCCCN)C(=O)N[C@H](C(=O)N[C@@H](Cc1c[nH]cn1)C(=O)N[C@@H](CCC(N)=O)C(=O)N[C@@H](CCC(N)=O)C(=O)N[C@@H](CC(=O)O)C(=O)N[C@@H](Cc1ccccc1)C(=O)N[C@H](C(=O)N[C@@H](CC(N)=O)C(=O)N[C@@H](Cc1c[nH]c2ccccc12)C(=O)N[C@@H](CC(C)C)C(=O)N[C@@H](CC(C)C)C(=O)N[C@@H](C)C(=O)N[C@@H](CCC(N)=O)C(=O)N[C@@H](CCCCN)C(=O)NCC(=O)N[C@@H](CCCCN)C(=O)N[C@@H](CCCCN)C(=O)N[C@@H](CC(N)=O)C(=O)N[C@@H](CC(=O)O)C(=O)N[C@@H](Cc1c[nH]c2ccccc12)C(=O)N[C@@H](CCCCN)C(=O)N[C@@H](Cc1c[nH]cn1)C(=O)N[C@@H](CC(N)=O)C(=O)N[C@H](C(=O)N[C@H](C(=O)N[C@@H](CCC(N)=O)C(=O)O)[C@@H](C)O)[C@@H](C)CC)C(C)C)[C@@H](C)CC` [Example 69, (Tic^3, Aib^13, Nle^14)hGIP(1-42)-OH] are 108 min and 2210 min.
For “YA[Tic]GTFISDYSI[Aib]MDKIHQQDFVNWLLAQKGKKNDWKHNITQ [Example 66, (Tic^3, Aib^13)hGIP(1-42)-OH]”, the half-life at 0.1 mg/ml in data set [1] (rat plasma, 37° C., LC-MS) was 528 min; in data set [2] (setting [3]) it was 1150 min.
On the same counts, the results for “Y[Aib]EGTF[Ac6c]SDYSIA[Nle]DKIHQQDFVNWL[Ac6c]AQKGKKNDWKHNITQ-OH [Example 27, (Aib^2, A6c^7, 27, Nle^14)hGIP(1-42)-OH]” are 558 min and more than 2880 min.
For “YA[Tic]GTFISDY[Ac5c]IA[Ac6c]DKIHQQDFVNWLLAQKGKKNDWKHNITQ-OH [Example 89, (Tic^3, A5c^11, A6c^14)hGIP(1-42)-OH]”, the half-life at 0.1 mg/ml in data set [1] (rat plasma, 37° C., LC-MS) was 708 min; in data set [2] (setting [3]), more than 2880 min.
On to “YA[Tic]GTFISDY[Ac5c]IAMDKIHQQDFVNWLLAQKGKKNDWKHNITQ-OH [Example 82, (Tic^3, A5c^11)hGIP(1-42)-OH]”, for which the half-life at 0.1 mg/ml in data set [1] (rat plasma, 37° C., LC-MS) is 612 min; in data set [2] (setting [3]) it was 582 min.
For the molecule “H-YAPGTFISDYSIAMDKIHQQDFVNWLLAQKGKKNDWKHNITQ-OH [[Pro^3]hGIP(1-42)-OH, reference compound]”, in data set [1] (rat, plasma, same experimental conditions as Table 2, read-out: rat plasma half-life (converted)), the half-life is 48 min. For the same molecule, in data set [2] (human, plasma, same experimental conditions as Table 2, read-out: human plasma half-life (converted)), the half-life at 0.1 mg/ml was 648 min.
Take “Y[Aib]EGTF[Ac6c]SDYSIA[Nle]DKIHQQDFVNWLLAQKGKKNDWKHNITQ-OH [Example 55, (Aib^2, A6c^7, Nle^14)hGIP(1-42)-OH]”: the half-life at 0.1 mg/ml is 702 min in data set [1] (rat plasma, 37° C., LC-MS) and 528 min in data set [2] (setting [3]).

The record behind these values is patent publication US9074014B2 (Ipsen Pharma S.A.S., priority 2008, dated 2015).
